Activity calls are given as the source filed them.
Key:
[1] = target: T1, Oxysterols receptor LXR-beta (Homo sapiens, UniProt P55055); assay type: functional, cell-based;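 further: agonist activity at LXR measured by a cell-based luminescence readout across a dose range, run as a counterscreen for daf-12 agonists; HEK293 cells with Gal4-LXR fusion and GAL4-driven luciferase reporter; potency for activation of Gal4-LXR reporter so compounds are agonists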
T1 sequence (P55055 whole entry): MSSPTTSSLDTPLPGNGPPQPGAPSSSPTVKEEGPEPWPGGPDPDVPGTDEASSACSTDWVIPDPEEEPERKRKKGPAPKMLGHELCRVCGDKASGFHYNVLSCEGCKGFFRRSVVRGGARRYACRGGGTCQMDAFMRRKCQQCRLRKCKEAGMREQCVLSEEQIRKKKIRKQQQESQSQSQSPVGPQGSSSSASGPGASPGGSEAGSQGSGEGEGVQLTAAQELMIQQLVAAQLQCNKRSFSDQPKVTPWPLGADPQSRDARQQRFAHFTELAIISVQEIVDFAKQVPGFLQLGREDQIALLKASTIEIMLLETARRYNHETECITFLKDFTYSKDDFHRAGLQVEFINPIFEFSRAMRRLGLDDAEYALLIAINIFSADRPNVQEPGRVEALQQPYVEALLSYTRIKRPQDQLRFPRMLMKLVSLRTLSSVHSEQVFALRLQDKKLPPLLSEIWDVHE

[2] = target: fMet-Leu-Phe receptor (Homo sapiens, UniProt P21462); experiment: formyl peptide receptor binders – dose response (AID 519); assay type: functional
fMet-Leu-Phe receptor, sequence (P21462 whole entry, the tested form may be a part): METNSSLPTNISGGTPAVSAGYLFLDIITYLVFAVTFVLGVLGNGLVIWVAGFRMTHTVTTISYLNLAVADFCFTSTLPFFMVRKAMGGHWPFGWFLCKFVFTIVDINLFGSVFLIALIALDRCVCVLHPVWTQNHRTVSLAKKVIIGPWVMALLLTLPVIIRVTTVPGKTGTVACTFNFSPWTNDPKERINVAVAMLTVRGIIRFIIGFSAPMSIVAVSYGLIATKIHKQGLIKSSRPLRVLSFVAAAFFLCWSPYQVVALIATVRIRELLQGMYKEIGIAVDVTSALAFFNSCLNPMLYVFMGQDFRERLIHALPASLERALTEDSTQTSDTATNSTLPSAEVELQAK

[3] = target: Photoreceptor-specific nuclear receptor (Homo sapiens, UniProt Q9Y5X4); assay type: functional, cell-based;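 further: CHO-S cells with Gal4-NCOR and VP16-NR2E3 two-hybrid luciferase reporter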
Photoreceptor-specific nuclear receptor, sequence (Q9Y5X4 whole entry, the tested form may be a part): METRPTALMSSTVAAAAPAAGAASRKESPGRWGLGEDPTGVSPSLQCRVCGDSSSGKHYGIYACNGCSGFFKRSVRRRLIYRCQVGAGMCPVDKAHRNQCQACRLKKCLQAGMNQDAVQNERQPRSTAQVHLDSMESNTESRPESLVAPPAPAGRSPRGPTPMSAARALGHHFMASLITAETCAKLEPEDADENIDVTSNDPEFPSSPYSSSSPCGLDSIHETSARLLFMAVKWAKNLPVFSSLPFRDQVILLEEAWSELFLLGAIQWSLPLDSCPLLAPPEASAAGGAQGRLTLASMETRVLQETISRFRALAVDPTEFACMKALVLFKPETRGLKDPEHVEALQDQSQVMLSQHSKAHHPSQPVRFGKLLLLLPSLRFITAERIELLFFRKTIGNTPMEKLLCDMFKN

[4] = target: COUP transcription factor 2 (Homo sapiens, UniProt P24468); experiment: Luminescence-based cell-based high throughput dose response assay to identify inhibitors of COUP-TFII (NR2F2).; assay type: functional;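 further: HEK293 cells transiently cotransfected with COUP-TFII expression vector and reporter; luciferase reporter luminescence driven by COUP-TFII from the pX2-168 reporter plasmid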
COUP transcription factor 2, sequence (P24468 whole entry): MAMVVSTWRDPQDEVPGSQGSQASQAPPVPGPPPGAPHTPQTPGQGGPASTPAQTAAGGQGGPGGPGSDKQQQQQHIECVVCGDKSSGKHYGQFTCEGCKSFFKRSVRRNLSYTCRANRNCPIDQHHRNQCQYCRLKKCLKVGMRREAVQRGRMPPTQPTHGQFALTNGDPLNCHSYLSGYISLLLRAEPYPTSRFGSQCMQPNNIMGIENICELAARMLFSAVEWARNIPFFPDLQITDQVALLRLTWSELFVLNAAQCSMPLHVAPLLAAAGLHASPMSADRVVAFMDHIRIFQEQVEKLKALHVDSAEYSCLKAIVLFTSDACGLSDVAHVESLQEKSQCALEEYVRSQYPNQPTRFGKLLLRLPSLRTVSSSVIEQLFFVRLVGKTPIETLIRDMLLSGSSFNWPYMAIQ

[5] = NIH-3T3 fibroblast cytotoxicity, dose response, cytotoxicity control, cell-based, fluorescence, Alamar Blue, secondary assay (AID 2327); assay type: functional;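 further: NIH-3T3 mouse fibroblasts cultured with fluconazole at 8 µg/mL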
[6] = test system: Streptococcus sp. 'group A'; experiment: Streptococcus pyogenes SK(-)GAS viability under kanamycin – luminescence, BacTiterGlo, confirmation, counter-screen for streptokinase expression inhibitor project, dose response (AID 1900); assay type: functional, organism-based
[7] = fluconazole-exposed Candida albicans growth modulators – fluorescence, retest, confirmation (AID 2467); assay type: functional, cell-based
[8] = Trypanosoma cruzi growth suppression in host cells – NIH3T3 host cells, beta-gal luminescence, confirmation (AID 2044); assay type: functional, cell-based;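 further: intracellular parasites grown in NIH/3T3 mouse fibroblasts as host cells; luminescent beta-galactosidase reporter signal from transgenic T. cruzi replicating inside host cells; inhibitors lower the luminescence signal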
[9] = target: T2, Serine/threonine-protein phosphatase (Candida dubliniensis (strain CD36 / CBS 7987 / NCPF 3949 / NRRLY-17841) (Yeast), UniProt B9W6M3); experiment: blockers of CaCl2-induced CDRE-lacZ signaling – S. cerevisiae, luminescence, secondary, dose response (AID 2388); assay type: functional, cell-based;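 further: yeast reporter cells carrying a calcineurin-responsive lacZ construct stimulated with calcium chloride; luminescent beta-galactosidase reporter signal in whole cells rather than isolated phosphatase activity; potency for inhibition where a drop in reporter signal means calcineurin blockade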
T2 sequence (B9W6M3 whole entry): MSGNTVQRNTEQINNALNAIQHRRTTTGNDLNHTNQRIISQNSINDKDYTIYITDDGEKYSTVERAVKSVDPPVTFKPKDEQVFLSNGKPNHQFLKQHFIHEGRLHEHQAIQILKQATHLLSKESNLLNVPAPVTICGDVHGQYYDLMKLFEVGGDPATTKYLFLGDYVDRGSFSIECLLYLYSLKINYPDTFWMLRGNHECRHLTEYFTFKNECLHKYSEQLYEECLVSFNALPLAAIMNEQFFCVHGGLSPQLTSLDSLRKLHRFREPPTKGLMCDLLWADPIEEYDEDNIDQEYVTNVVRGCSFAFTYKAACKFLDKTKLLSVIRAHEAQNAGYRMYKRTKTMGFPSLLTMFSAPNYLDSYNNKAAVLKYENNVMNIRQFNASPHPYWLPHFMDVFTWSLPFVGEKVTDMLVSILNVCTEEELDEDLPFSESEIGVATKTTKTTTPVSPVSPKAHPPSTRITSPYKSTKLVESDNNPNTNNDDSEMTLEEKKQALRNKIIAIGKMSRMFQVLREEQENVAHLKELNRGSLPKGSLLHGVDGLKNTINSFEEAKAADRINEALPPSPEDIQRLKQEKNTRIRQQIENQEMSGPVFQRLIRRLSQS

[10] = NIH3T3 cell viability loss – ATP luminescence, mouse fibroblasts, counter-screen, dose response (AID 2010); assay type: functional, cell-based;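 further: cells exposed to compound for about 90 hours before reading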
[11] = test system: Streptococcus; experiment: GAS UMAA2166 growth inhibition – luminescence, BacTiterGlo, counter-screen for streptokinase expression inhibitor project, dose response (AID 1915); assay type: functional, organism-based;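 further: potency for reduction of bacterial viability or growth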
[12] = target: Heat shock protein HSP 90-alpha (Homo sapiens, UniProt P07900); assay type: functional, organism-based
[13] = target: ATP-dependent molecular chaperone HSP82 (Candida albicans (strain WO-1) (Yeast), UniProt C4YTQ8); experiment: steroid-induced GRE reporter decrease in yeast – S. cerevisiae, luminescence, Hsp90 inhibitor project, dose response (AID 2400); assay type: functional, cell-based;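 further: beta-galactosidase luminescence from glucocorticoid response element reporter as proxy for Hsp90 function; inhibitor potency where signal loss means Hsp90 inhibition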
ATP-dependent molecular chaperone HSP82, sequence (C4YTQ8 whole entry): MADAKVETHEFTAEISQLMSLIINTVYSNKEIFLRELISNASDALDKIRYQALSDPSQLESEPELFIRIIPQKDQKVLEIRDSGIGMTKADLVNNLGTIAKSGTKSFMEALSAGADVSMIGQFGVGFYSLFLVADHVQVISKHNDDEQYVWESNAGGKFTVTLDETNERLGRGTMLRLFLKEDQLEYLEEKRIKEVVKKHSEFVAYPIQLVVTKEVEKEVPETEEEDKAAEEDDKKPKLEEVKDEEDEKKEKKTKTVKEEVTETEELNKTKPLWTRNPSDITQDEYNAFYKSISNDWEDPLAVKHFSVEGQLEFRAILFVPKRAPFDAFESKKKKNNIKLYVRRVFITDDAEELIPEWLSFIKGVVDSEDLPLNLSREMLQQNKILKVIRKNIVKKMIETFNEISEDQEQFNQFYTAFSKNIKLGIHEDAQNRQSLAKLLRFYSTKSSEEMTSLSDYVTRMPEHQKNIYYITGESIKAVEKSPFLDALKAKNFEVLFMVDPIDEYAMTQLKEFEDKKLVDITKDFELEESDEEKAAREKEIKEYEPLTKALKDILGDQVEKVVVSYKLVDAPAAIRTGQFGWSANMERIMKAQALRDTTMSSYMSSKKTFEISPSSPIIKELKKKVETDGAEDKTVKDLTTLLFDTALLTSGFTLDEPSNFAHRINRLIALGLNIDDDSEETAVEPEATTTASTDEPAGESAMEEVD

[14] = HGIII-sPLA2 enzyme inhibition potency – biochemical, QFRET, IC50, dose response (AID 743457);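 further: green fluorescence rise as the enzyme cleaves BODIPY PC-A2 in liposomes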
[15] = HPDE-C7 pancreatic duct cell viability loss – fluorescence, HTS (AID 430); assay type: functional, cell-based; details: Homo sapiens
[16] = viability loss of HPDE-C7K cells – cell-based, fluorescence, HTS, primary screen (AID 431); assay type: functional; details: Homo sapiens
[17] = target: T3, Short transient receptor potential channel 4 (Mus musculus, UniProt Q9QUQ5); experiment: calcium entry via TRPC4 opening agents – cell-based, HEK293 TRPC4/mu-opioid, Fluo-4 calcium, dose response (AID 434937); assay type: functional
T3 sequence (Q9QUQ5 whole entry): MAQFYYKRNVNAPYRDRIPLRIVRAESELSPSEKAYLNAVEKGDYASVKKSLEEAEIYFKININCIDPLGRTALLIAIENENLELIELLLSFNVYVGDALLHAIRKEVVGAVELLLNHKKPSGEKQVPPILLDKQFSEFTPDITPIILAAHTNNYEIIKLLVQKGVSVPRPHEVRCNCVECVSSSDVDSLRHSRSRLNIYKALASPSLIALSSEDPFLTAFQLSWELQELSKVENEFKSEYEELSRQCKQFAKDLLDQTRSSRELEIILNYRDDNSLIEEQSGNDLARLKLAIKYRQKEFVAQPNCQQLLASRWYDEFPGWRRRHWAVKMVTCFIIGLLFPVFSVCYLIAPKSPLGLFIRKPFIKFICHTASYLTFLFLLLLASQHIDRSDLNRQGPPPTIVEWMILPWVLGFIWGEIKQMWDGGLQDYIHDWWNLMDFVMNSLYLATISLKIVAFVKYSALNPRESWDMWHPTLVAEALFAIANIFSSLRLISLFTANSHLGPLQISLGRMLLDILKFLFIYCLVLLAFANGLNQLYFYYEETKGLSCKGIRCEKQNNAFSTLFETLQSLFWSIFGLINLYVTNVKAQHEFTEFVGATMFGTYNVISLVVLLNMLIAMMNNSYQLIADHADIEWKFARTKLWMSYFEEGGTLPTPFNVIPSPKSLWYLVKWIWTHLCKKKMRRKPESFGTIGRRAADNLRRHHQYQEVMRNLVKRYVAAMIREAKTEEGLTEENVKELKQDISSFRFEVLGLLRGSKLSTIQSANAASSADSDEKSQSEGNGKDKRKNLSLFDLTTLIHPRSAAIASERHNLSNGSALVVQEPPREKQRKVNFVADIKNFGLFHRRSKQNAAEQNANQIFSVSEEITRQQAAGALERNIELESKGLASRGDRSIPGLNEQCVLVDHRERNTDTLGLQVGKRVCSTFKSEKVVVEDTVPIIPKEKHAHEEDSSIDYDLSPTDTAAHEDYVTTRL

[18] = HEK-293T viability loss after treatment – luminescence, T-cell screen hits, cytotoxicity control for TCR NF-kB inhibitor project, dose response (AID 489026); assay type: functional, cell-based;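 further: cells exposed to compound about 14 hours before the viability readout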
[19] = viability loss in CEM21 cells – cell-based, CellTiter-Glo luminescence, cherry-picked, cytotoxicity control for viral fusion inhibitor project, dose response (AID 652042); assay type: functional;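 further: potency for signal decrease meaning cytotoxicity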
[20] = blockers of HIV-1 ZM109 envelope-driven cell-cell fusion – HeLa effector, CEM target cells, luciferase, cherry-pick, dose response (AID 652058); assay type: functional, cell-based;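 further: luciferase signal from HIV-1 Env mediated cell-cell fusion of effector and target cells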
[21] = HIV-1 AD8 envelope cell-cell fusion blockers – cherry-pick, dose response (AID 652062); assay type: functional, cell-based;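 further: luciferase signal from cell-cell fusion driven by HIV-1 clade B AD8 Env; potency is for inhibitors of fusion seen as a drop in luminescence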
[22] = Luminescence Cell-Based Dose Confirmation HTS to Identify Activators of 5'UTR Stem-Loop Driven Alpha-Synuclein mRNA Translation in H4 Neuroglioblastoma Cells. [Related pubchem assays: 1829 (Project Summary), 1814 (Primary HTS)]; assay type: functional
[23] = Luminescence Cell-Based Dose Response HTS to Identify Activators of Luciferase Translation or Activity in H4 […] Cells. [Related pubchem assays: 1829 (Project Summary), 1814 (Primary HTS)]; assay type: functional
[24] = cells; assay type: functional, cell-based
[25] = test system: H4; experiment: Luminescence Cell-Based Dose Response HTS to Identify Activators of 5'UTR Stem-Loop Driven Prion Protein mRNA Translation in H4 Neuroglioblastoma Cells. [Related pubchem assays: 1829 (Project Summary), 1814 (Primary HTS)]; assay type: functional; details: Homo sapiens
[26] = cells; assay type: functional, cell-based; remark: listed apart in the source
[27] = reduction of Shn3 3'UTR-driven luciferase in osteoblasts – cell-based, Clone20 osteoblasts, firefly luciferase, cherry-picked, dose response (AID 624132); assay type: functional;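 further: firefly luciferase luminescence from reporter carrying the Shn3 3'UTR in osteoblasts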
[28] = loss of viability in HepG2 cells – cell-based, CellTiter-Glo, cherry-picked, cytotoxicity control for Shn3 inhibitor project, dose response (AID 624134); assay type: functional
[29] = non-specific 3'UTR reporter inhibition in Clone20-Shn3RL – cell-based, Renilla luciferase, cherry-picked, counter-screen for Shn3 inhibitor project, dose response (AID 624133); assay type: functional
[30] = Shn3 3'UTR reporter signal decrease – cell-based, Clone20 osteoblasts, firefly luciferase, cherry-pick, set 2, Schnurri-3 inhibitor project, dose response (AID 720490); assay type: functional;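 further: actives lower the luminescence signal as inhibitors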
[31] = EF1alpha-driven Renilla reporter with control 3'UTR suppression – Clone20-Shn3RL cells, dual-Glo, cherry-pick, set 2, counter-screen for Shn3 3'UTR targeting project, dose response (AID 720724); assay type: functional, cell-based; details: Dual-Go Shn3RL
[32] = target: Nonstructural protein 1 (Influenza A virus, UniProt Q194T2); assay type: functional, Influenza A virus (A/California/07/2009(H1N1))
Nonstructural protein 1, sequence (Q194T2 whole entry): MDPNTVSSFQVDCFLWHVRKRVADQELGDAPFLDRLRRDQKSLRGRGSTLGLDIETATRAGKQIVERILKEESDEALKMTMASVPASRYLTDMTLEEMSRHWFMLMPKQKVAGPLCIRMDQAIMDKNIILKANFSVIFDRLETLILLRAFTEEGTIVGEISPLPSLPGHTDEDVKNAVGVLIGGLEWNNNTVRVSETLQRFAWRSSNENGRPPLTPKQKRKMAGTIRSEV

[33] = target: Histone-lysine N-methyltransferase NSD2 (Homo sapiens, UniProt O96028); assay type: biochemical
Histone-lysine N-methyltransferase NSD2, sequence (O96028 whole entry): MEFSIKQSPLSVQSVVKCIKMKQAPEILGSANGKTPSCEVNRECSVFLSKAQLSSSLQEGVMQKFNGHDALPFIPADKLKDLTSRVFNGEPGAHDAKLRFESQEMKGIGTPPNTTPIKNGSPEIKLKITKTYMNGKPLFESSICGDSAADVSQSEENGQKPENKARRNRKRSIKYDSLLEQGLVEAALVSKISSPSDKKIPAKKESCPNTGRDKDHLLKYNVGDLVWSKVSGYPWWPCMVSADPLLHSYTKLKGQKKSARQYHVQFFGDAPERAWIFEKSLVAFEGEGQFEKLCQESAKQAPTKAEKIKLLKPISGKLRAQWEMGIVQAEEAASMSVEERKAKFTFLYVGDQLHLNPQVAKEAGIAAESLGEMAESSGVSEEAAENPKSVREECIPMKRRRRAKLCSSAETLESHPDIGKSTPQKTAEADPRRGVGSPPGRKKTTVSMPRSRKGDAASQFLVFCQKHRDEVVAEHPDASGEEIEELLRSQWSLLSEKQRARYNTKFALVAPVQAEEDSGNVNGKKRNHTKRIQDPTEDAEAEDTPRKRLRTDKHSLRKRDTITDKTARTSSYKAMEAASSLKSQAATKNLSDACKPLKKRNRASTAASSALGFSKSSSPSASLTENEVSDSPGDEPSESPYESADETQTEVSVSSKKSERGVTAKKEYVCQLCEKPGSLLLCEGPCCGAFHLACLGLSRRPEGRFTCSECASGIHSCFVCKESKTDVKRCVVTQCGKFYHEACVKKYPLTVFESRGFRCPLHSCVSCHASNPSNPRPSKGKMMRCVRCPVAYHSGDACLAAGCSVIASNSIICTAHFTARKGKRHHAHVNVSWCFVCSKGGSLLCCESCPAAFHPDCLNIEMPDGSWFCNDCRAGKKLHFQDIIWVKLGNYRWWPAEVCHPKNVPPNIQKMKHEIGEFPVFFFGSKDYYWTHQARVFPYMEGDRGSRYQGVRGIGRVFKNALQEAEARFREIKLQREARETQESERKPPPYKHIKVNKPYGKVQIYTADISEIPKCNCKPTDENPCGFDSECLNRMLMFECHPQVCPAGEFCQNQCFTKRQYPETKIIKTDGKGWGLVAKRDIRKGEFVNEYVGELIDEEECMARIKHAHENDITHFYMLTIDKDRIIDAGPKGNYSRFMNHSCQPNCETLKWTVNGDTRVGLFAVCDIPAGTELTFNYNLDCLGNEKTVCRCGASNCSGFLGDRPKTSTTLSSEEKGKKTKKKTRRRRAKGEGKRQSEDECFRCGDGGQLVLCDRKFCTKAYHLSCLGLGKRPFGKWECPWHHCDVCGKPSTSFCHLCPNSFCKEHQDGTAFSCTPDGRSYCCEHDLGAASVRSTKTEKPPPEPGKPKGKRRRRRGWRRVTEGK

[34] = general mammalian cell viability loss – activator set, cherry-pick, cytotoxicity control for miR-122 modulator project, dose response (AID 720690); assay type: functional, cell-based;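 further: HEK293T human cells scored for general mammalian cytotoxicity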

c1ccc(N=Nc2ccc(C3=NCCO3)cc2)cc1
EC50 [1]: > 67.6 µM (inactive)

Cc1nc(C)c(C(=O)C2=C(O)C(=O)N(CCCn3ccnc3)C2c2ccc(Cl)cc2)s1 (configuration not stated)
Ki [2]: > 66.7 µM (inactive)

CCCc1cc(=O)n2nc(N3CCC(C(=O)N4CCN(c5ccc(OC)cc5)CC4)CC3)sc2n1
IC50 [3]: 4.09 µM (active) | IC50 [4]: 7.18 µM (active)

COc1ccc(Cl)cc1C(Nc1cccnc1)c1ccc2cccnc2c1O (configuration not stated)
EC50 [5]: 33.6 µM (active) | EC50 [6]: 3.74 µM (active) | EC50 [7]: 0.728 µM (active) | EC50 [8]: 1.86 µM (active) | EC50 [9]: > 180 µM (inactive) | EC50 [10]: 6.56 µM (active) | EC50 [11]: 5.9 µM (active) | AC50 [12]: 2.2 µM (active) | EC50 [13]: 16.3 µM (active) | IC50 [14]: > 122 µM (inactive)

c1ccc2c(c1)CCN(c1[nH]cnc3c4ccccc4nc1-3)C2
EC50 [5]: > 150 µM (inactive) | EC50 [7]: 1.01 µM (active) | EC50 [15]: 17.7 µM (active) | EC50 [16]: > 20 µM (not active) | EC50 [9]: > 180 µM (inactive) | EC50 [17]: 5.96 µM (active) | IC50 [18]: 21 µM (inactive) | EC50 [13]: > 150 µM (inactive) | AC50 [19]: 64.8 µM (active) | AC50 [20]: 2.62 µM (active) | AC50 [21]: 4.09 µM (active) | IC50 [4]: 4.69 µM (active)

Cc1ccc(NC(S)=NC(=NS(=O)(=O)c2ccccc2)c2ccccc2)cc1
EC50 [22]: 5.09 µM (active) | EC50 [23]: 16.5 µM (active) | EC50 [24]: > 350 µM (not active) | EC50 [25]: 6.51 µM (active) | EC50 [26]: 202 µM (active) | EC50 [1]: > 67.5 µM (inactive)

COc1ccccc1C1C(C(=O)c2ccccc2)=C(O)C(=O)N1CC(C)C (configuration not stated)
Ki [2]: 5.5 µM (active)

CCn1cc(CN(C)S(=O)(=O)c2ccc3ccccc3c2)c(C)n1
AC50 [27]: 1.56 µM (active) | AC50 [28]: 39.4 µM (active) | AC50 [29]: 22.8 µM (active) | AC50 [30]: 2.23 µM (active) | AC50 [31]: 1.8 µM (active)

Cc1ccc(N2CCOCC2)c2c1C(=O)c1ccccc1C2=O
IC50 [32]: 14.5 µM (active) | AC50 [33]: 10.5 µM (active) | IC50 [14]: > 122 µM (inactive)

CCCNC(=O)C[C@@H]1CC[C@H]2[C@H](COc3ccc(NC(=O)c4ccc(C(F)(F)F)cc4)cc3C(=O)N2C)O1
AC50 [34]: 31.5 µM (active)

— ChEMBL document CHEMBL1201862, “PubChem BioAssay data set” (2004)
